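In this assay, cells in 96-well plates receive the compound at five concentrations for 48 hours. Endpoints are linearly interpolated between the surrounding concentrations. GI50 = concentration required for 50% inhibition of growth.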 Calls of active or inactive are those of the source. Rule as the data show it: active = GI50 up to about 1.1 µM and inactive = higher.
What was measured:
Test in all cases: NCI tumour cell line growth inhibition, 48 h
SF-295 = test system: SF-295
IGROV-1 = test system: IGROV-1
HOP-62 = test system: HOP-62
UO-31 = test system: UO-31
OVCAR-3 = test system: OVCAR-3
CAKI-1 = test system: CAKI-1
OVCAR-8 = test system: OVCAR-8
A549 = test system: A549
HOP-92 = test system: HOP-92
EKVX = test system: EKVX
HCT-15 = test system: HCT-15
HL-60 = test system: HL-60
LXFL 529 = test system: LXFL 529
NCI-H23 = test system: NCI-H23
KM12 = test system: KM12
A498 = test system: A498
SF-268 = test system: SF-268
HT-29 = test system: HT-29
RXF 393 = test system: RXF 393
T47D = test system: T47D

SMILES | GI50 (SF-295) | GI50 (IGROV-1) | GI50 (HOP-62) | GI50 (UO-31) | GI50 (OVCAR-3) | GI50 (CAKI-1) | GI50 (OVCAR-8) | GI50 (A549) | GI50 (HOP-92) | GI50 (EKVX) | GI50 (HCT-15) | GI50 (HL-60) | GI50 (LXFL 529) | GI50 (NCI-H23) | GI50 (KM12) | GI50 (A498) | GI50 (SF-268) | GI50 (HT-29) | GI50 (RXF 393) | GI50 (T47D)
COc1ccc(/N=N/c2c(-c3ccccc3)nn(C(=O)CC(=O)Nc3ccc(OC)cc3)c2-c2ccccc2)cc1 | 21.1 µM (inactive) | 39.9 µM (inactive) | 23.4 µM (inactive) | > 100 µM (inactive) | > 100 µM (inactive) | > 100 µM (inactive) | > 100 µM (inactive) | > 100 µM (inactive) | 16 µM (inactive) | 71.1 µM (inactive) | > 100 µM | > 100 µM (inactive) | 60.5 µM (inactive) | 33 µM (inactive) | > 100 µM (inactive) | 33.2 µM (inactive) | 48.5 µM (inactive) | > 100 µM (inactive) |  | 
NC(=O)CCC(Nc1c2ccccc2[n+]([O-])c2ccccc12)C(=O)O (centres undefined) | > 100 µM (inactive) | > 100 µM (inactive) | > 100 µM (inactive) | 58.3 µM (inactive) | 60.1 µM (inactive) |  | 63 µM (inactive) | > 100 µM (inactive) |  | > 100 µM (inactive) | 46.7 µM | 11.1 µM (inactive) | 31 µM (inactive) | 35.6 µM (inactive) | > 100 µM (inactive) | > 100 µM (inactive) | 64.7 µM (inactive) |  |  | 
C/C(=N\NS(=O)(=O)c1c(C)cc(C)cc1C)c1ccc[n+]([O-])n1 | 62.2 µM (inactive) | 31.6 µM (inactive) | > 100 µM (inactive) | 21.2 µM (inactive) | 12.6 µM (inactive) | 4.78 µM (inactive) | 19.6 µM (inactive) | 65.2 µM (inactive) | 9.95 µM (inactive) | 12.4 µM (inactive) | 14.7 µM | 6.12 µM (inactive) | 11.3 µM (inactive) | 15.5 µM (inactive) | 38.5 µM (inactive) | 29.5 µM (inactive) | 20.1 µM (inactive) | 18.3 µM (inactive) |  | 
C1=Cc2nc1c(-c1ccccc1)c1ccc([n-]1)c(-c1ccccc1)c1nc(c(-c3ccccc3)c3ccc([n-]3)c2-c2ccccc2)C=C1.[Zn+2] | > 100 µM (inactive) | > 100 µM (inactive) | 19.9 µM (inactive) | > 100 µM (inactive) | > 100 µM (inactive) | > 100 µM (inactive) | > 100 µM (inactive) | > 100 µM (inactive) | > 100 µM (inactive) | > 100 µM (inactive) | > 100 µM | 45 µM (inactive) | > 100 µM (inactive) | > 100 µM (inactive) | > 100 µM (inactive) |  | > 100 µM (inactive) | > 100 µM (inactive) |  | 
O=C(O)CCC1c2[nH]c3ccccc3c2CCN1Cc1ccccc1 (centres undefined) | > 100 µM (inactive) | > 100 µM (inactive) |  | > 100 µM (inactive) | > 100 µM (inactive) | > 100 µM (inactive) | > 100 µM (inactive) | > 100 µM (inactive) | > 100 µM (inactive) | > 100 µM (inactive) | > 100 µM | > 100 µM (inactive) | > 100 µM (inactive) | > 100 µM (inactive) | > 100 µM (inactive) | > 100 µM (inactive) | > 100 µM (inactive) | > 100 µM (inactive) |  | 
CCOC(=O)C(c1c[nH]c2ccccc12)(c1c[nH]c2ccccc12)c1c[nH]c2ccccc12 | 30.4 µM (inactive) | 33.3 µM (inactive) | 39.6 µM (inactive) | 30.3 µM (inactive) | 27.5 µM (inactive) | 29.4 µM (inactive) | 36.2 µM (inactive) | 30.7 µM (inactive) | 37 µM (inactive) | 37.7 µM (inactive) | 34.7 µM | 15.9 µM (inactive) |  | 70.8 µM (inactive) | 28.5 µM (inactive) | 35.2 µM (inactive) | 32.8 µM (inactive) | 34.4 µM (inactive) | 21.7 µM (inactive) | 16.2 µM (inactive)
CCN(C(=O)N[C@H](C(=O)N[C@@H](C)C(=O)OC)C(C)C)c1ccccc1 | 70 µM (inactive) | 28.1 µM (inactive) | > 100 µM (inactive) | 43.3 µM (inactive) | 51.2 µM (inactive) | > 100 µM (inactive) | 24.5 µM (inactive) | > 100 µM (inactive) | 24 µM (inactive) | > 100 µM (inactive) | 32.4 µM | 23.4 µM (inactive) |  | 64.3 µM (inactive) | 39.6 µM (inactive) | 46.3 µM (inactive) | > 100 µM (inactive) | 38.8 µM (inactive) | 39.5 µM (inactive) | 29.8 µM (inactive)
c1ccc2c(c1)CN1CCCC1CN2 (centres undefined) | > 100 µM (inactive) | > 100 µM (inactive) | > 100 µM (inactive) | > 100 µM (inactive) | > 100 µM (inactive) | > 100 µM (inactive) | > 100 µM (inactive) | > 100 µM (inactive) | > 100 µM (inactive) | > 100 µM (inactive) | > 100 µM | > 100 µM (inactive) |  | > 100 µM (inactive) | > 100 µM (inactive) | > 100 µM (inactive) | > 100 µM (inactive) | > 100 µM (inactive) | > 100 µM (inactive) | > 100 µM (inactive)
CCc1nc(N)nc(N)c1-c1ccc2nn(-c3ccccc3)[n+]([O-])c2c1 | 2.4 µM (inactive) | 1.67 µM (inactive) | 5.82 µM (inactive) | 7.13 µM (inactive) | 7.62 µM (inactive) | 4.47 µM (inactive) | 2.42 µM (inactive) | 0.378 µM (active) | 8.91 µM (inactive) | 7.96 µM (inactive) | 0.697 µM | 0.902 µM (active) |  | 1.87 µM (inactive) | 5.45 µM (inactive) | 8.43 µM (inactive) | 5.12 µM (inactive) | 1.26 µM (inactive) | 10.3 µM (inactive) | 13.1 µM (inactive)
CCOP(=O)(OCC)C(F)(F)Cc1cnc(C)c2c1COC(C)(C)O2 | > 10 µM (inactive) | > 10 µM (inactive) | > 10 µM (inactive) | > 10 µM (inactive) | > 10 µM (inactive) | > 10 µM (inactive) | > 10 µM (inactive) | > 10 µM (inactive) | > 10 µM (inactive) | > 10 µM (inactive) | > 10 µM | > 10 µM (inactive) |  | > 10 µM (inactive) | > 10 µM (inactive) | > 10 µM (inactive) | > 10 µM (inactive) | > 10 µM (inactive) | > 10 µM (inactive) | > 10 µM (inactive)
O=C1CSC(c2ccccc2O)N1c1ccc(-c2ccc(-n3c(-c4ccccc4)nc4ccccc4c3=O)cc2)cc1 (centres undefined) | 22.5 µM (inactive) | 15.3 µM (inactive) | 39.6 µM (inactive) | 20.7 µM (inactive) | 34.8 µM (inactive) | 26.1 µM (inactive) | 24.3 µM (inactive) | 21.3 µM (inactive) | 27.6 µM (inactive) | 37.4 µM (inactive) | 33.7 µM | 23.4 µM (inactive) |  | 43.9 µM (inactive) | 13.9 µM (inactive) | 70 µM (inactive) | 45.3 µM (inactive) | 13.3 µM (inactive) | 35.1 µM (inactive) | 23 µM (inactive)

— ChEMBL document CHEMBL1201862, “PubChem BioAssay data set” (2004)
